According to ChEMBL document CHEMBL4346676, “Base promoted synthesis of novel indole-dithiocarbamate compounds as potential anti-inflammatory therapeutic agents for treatment of acute lung injury” (Eur J Med Chem, 2019):
pIC50: −log10 of the molar value. Active and inactive are the calls of the source. The rule behind the calls is not given here.

Columns and labels:
Peritoneal macrophage [1] = test: Cytotoxicity against C57BL/6J mouse Primary peritoneal macrophages assessed as cell viability at 1 uM measured after 24 hrs by MTT assay; assay type: cell-based
Peritoneal macrophage [2] = test: Antiinflammatory activity in C57BL/6J mouse Primary peritoneal macrophages assessed as suppression of LPS-stimulated IL-6 expression at 1 uM preincubated for 30 mins followed by LPS stimulation measured after 24 hrs by ELISA; assay type: functional, cell-based
Peritoneal macrophage [3] = test: Antiinflammatory activity in C57BL/6J mouse Primary peritoneal macrophages assessed as inhibition of LPS-stimulated IL-6 expression preincubated for 30 mins followed by LPS stimulation measured after 24 hrs by ELISA; assay type: functional, cell-based
Peritoneal macrophage [4] = test: Antiinflammatory activity in C57BL/6J mouse Primary peritoneal macrophages assessed as suppression of LPS-stimulated TNF-alpha expression at 1 uM preincubated for 30 mins followed by LPS stimulation measured after 24 hrs by ELISA; assay type: functional, cell-based
Peritoneal macrophage [5] = test: Antiinflammatory activity in C57BL/6J mouse Primary peritoneal macrophages assessed as inhibition of LPS-stimulated TNF-alpha expression preincubated for 30 mins followed by LPS stimulation measured after 24 hrs by ELISA; assay type: functional, cell-based
Mus musculus [6] = test: Antiinflammatory activity in LPS-induced C57BL/6 mouse model of acute lung injury assessed as reduction in TNF-alpha mRNA expression at 2.5 to 5 mg/kg, po pretreated for 3 days followed by LPS challenge measured after 6 hrs by SYBR green dye based RT-qPCR analysis; assay type: functional, organism-based
Mus musculus [7] = test: Antiinflammatory activity in LPS-induced C57BL/6 mouse model of acute lung injury assessed as reduction in IL-6 mRNA expression at 2.5 to 5 mg/kg, po pretreated for 3 days followed by LPS challenge measured after 6 hrs by SYBR green dye based RT-qPCR; assay type: functional, organism-based
Mus musculus [8] = test: Antiinflammatory activity in LPS-induced C57BL/6 mouse model of acute lung injury assessed as reduction in IL-1beta mRNA expression at 2.5 to 5 mg/kg, po pretreated for 3 days followed by LPS challenge measured after 6 hrs by SYBR green dye based RT-qPCR analysis; assay type: functional, organism-based
Mus musculus [9] = test: Antiinflammatory activity in po dosed C57BL/6 mouse model of acute lung injury assessed as reduction in LPS-stimulated IL-1beta mRNA expression pretreated for 3 days followed by LPS challenge measured after 6 hrs by SYBR green dye based RT-qPCR; assay type: functional, organism-based
Mus musculus [10] = test: Antiinflammatory activity in po dosed C57BL/6 mouse model of acute lung injury assessed as reduction in LPS-stimulated IL-6 mRNA expression pretreated for 3 days followed by LPS challenge measured after 6 hrs by SYBR green dye based RT-qPCR; assay type: functional, organism-based
Mus musculus [11] = test: Antiinflammatory activity in LPS-induced C57BL/6 mouse model of acute lung injury assessed as suppression of macrophage infiltration at 2.5 to 5 mg/kg, po pretreated for 3 days followed by LPS challenge measured after 6 hrs by F4/80/hematoxylin staining based microscopic analysis; assay type: functional, organism-based
Mus musculus [12] = test: Antiinflammatory activity in po dosed C57BL/6 mouse model of acute lung injury assessed as reduction in LPS-stimulated ICAM1 mRNA expression pretreated for 3 days followed by LPS challenge measured after 6 hrs by SYBR green dye based RT-qPCR analysis; assay type: functional, organism-based
Mus musculus [13] = test: Antiinflammatory activity in LPS-induced C57BL/6 mouse model of acute lung injury assessed as reduction in TNF-alpha level in serum at 2.5 to 5 mg/kg, po pretreated for 3 days followed by LPS challenge measured after 6 hrs; assay type: functional, organism-based
Mus musculus [14] = test: Antiinflammatory activity in LPS-induced C57BL/6 mouse model of acute lung injury assessed as reduction in TNF-alpha level in BALF at 2.5 to 5 mg/kg, po pretreated for 3 days followed by LPS challenge measured after 6 hrs; assay type: functional, organism-based
Mus musculus [15] = test: Antiinflammatory activity in LPS-induced C57BL/6 mouse model of acute lung injury assessed as reduction in VCAM1 mRNA expression at 2.5 to 5 mg/kg, po pretreated for 3 days followed by LPS challenge measured after 6 hrs by SYBR green dye based RT-qPCR analysis; assay type: functional, organism-based
Mus musculus [16] = test: Antiinflammatory activity in LPS-induced C57BL/6 mouse model of acute lung injury assessed as inhibition of interstitial edema at 2.5 to 5 mg/kg, po pretreated for 3 days followed by LPS challenge measured after 6 hrs by hematoxylin and eosin staining based microscopic analysis; assay type: functional, organism-based
Mus musculus [17] = test: Antiinflammatory activity in LPS-induced C57BL/6 mouse model of acute lung injury assessed as inhibition of interalveolar septal thickening at 2.5 to 5 mg/kg, po pretreated for 3 days followed by LPS challenge measured after 6 hrs by hematoxylin and eosin staining based microscopic analysis; assay type: functional, organism-based
Mus musculus [18] = test: Antiinflammatory activity in LPS-induced C57BL/6 mouse model of acute lung injury assessed as reduction in total protein levels in BALF at 2.5 to 5 mg/kg, po pretreated for 3 days followed by LPS challenge measured after 6 hrs; assay type: functional, organism-based
Mus musculus [19] = test: Antiinflammatory activity in LPS-induced C57BL/6 mouse model of acute lung injury assessed as inhibition of destruction of alveolar structure at 2.5 to 5 mg/kg, po pretreated for 3 days followed by LPS challenge measured after 6 hrs by hematoxylin and eosin staining based microscopic analysis; assay type: functional, organism-based
Mus musculus [20] = test: Antiinflammatory activity in LPS-induced C57BL/6 mouse model of acute lung injury assessed as reduction in neutrophil count in BALF at 2.5 to 5 mg/kg, po pretreated for 3 days followed by LPS challenge measured after 6 hrs; assay type: functional, organism-based
Mus musculus [21] = test: Antiinflammatory activity in LPS-induced C57BL/6 mouse model of acute lung injury assessed as reduction in IL-6 level in BALF at 2.5 to 5 mg/kg, po pretreated for 3 days followed by LPS challenge measured after 6 hrs; assay type: functional, organism-based
Mus musculus [22] = test: Antiinflammatory activity in LPS-induced C57BL/6 mouse model of acute lung injury assessed as reduction in IL-6 level in serum at 2.5 to 5 mg/kg, po pretreated for 3 days followed by LPS challenge measured after 6 hrs; assay type: functional, organism-based
Mus musculus [23] = test: Antiinflammatory activity in LPS-induced C57BL/6 mouse model of acute lung injury assessed as inhibition of destruction of alveolar hemorrhage at 2.5 to 5 mg/kg, po pretreated for 3 days followed by LPS challenge measured after 6 hrs by hematoxylin and eosin staining based microscopic analysis; assay type: functional, organism-based
Mus musculus [24] = test: Antiinflammatory activity in LPS-induced C57BL/6 mouse model of acute lung injury assessed as reduction in lung wet/dry ratio at 2.5 to 5 mg/kg, po pretreated for 3 days followed by LPS challenge measured after 6 hrs; assay type: functional, organism-based
Mus musculus [25] = test: Antiinflammatory activity in LPS-induced C57BL/6 mouse model of acute lung injury assessed as reduction in total protein level in BALF at 2.5 to 5 mg/kg, po pretreated for 3 days followed by LPS challenge measured after 6 hrs; assay type: functional, organism-based
Mus musculus [26] = test: Antiinflammatory activity in po dosed C57BL/6 mouse model of acute lung injury assessed as reduction in LPS-stimulated TNF-alpha mRNA expression pretreated for 3 days followed by LPS challenge measured after 6 hrs by SYBR green dye based RT-qPCR; assay type: functional, organism-based
Mus musculus [27] = test: Antiinflammatory activity in LPS-induced C57BL/6 mouse model of acute lung injury assessed as reduction in ICAM1 mRNA expression at 2.5 to 5 mg/kg, po pretreated for 3 days followed by LPS challenge measured after 6 hrs by SYBR green dye based RT-qPCR analysis; assay type: functional, organism-based
Mus musculus [28] = test: Antiinflammatory activity in po dosed C57BL/6 mouse model of acute lung injury assessed as reduction in LPS-stimulated VCAM1 mRNA expression pretreated for 3 days followed by LPS challenge measured after 6 hrs by SYBR green dye based RT-qPCR analysis; assay type: functional, organism-based
Mus musculus [29] = test: Antiinflammatory activity in LPS-induced C57BL/6 mouse model of acute lung injury assessed as inhibition of inflammatory cell infiltration at 2.5 to 5 mg/kg, po pretreated for 3 days followed by LPS challenge measured after 6 hrs by hematoxylin and eosin staining based microscopic analysis; assay type: functional, organism-based

S=C(Sn1ccc2ccccc21)N1CCOCC1 was tested, and the Activity (Peritoneal macrophage [1]) was “Non-Toxic”.
In the case of CN(C)C(=S)Sn1ccc2cc(Cl)ccc21, the Activity (Peritoneal macrophage [1]) was “Non-Toxic”.
CN(C)C(=S)Sn1ccc2ccccc21 was tested, and the Activity (Peritoneal macrophage [1]) was “Non-Toxic”.
In the case of Cc1ccc2c(c1)cc(C)n2SC(=S)N(C)C, the Activity (Peritoneal macrophage [1]) was “Non-Toxic”.
COc1cccc2c1ccn2SC(=S)N(C)C was tested, and the inhibition (Peritoneal macrophage [2]) was “Active”, the Activity (Peritoneal macrophage [1]) was “Non-Toxic” and the pIC50 (Peritoneal macrophage [3]) was 7.15. The inhibition (Peritoneal macrophage [3]) was “Dose-dependent effect”, the inhibition (Peritoneal macrophage [4]) was “Active” and the pIC50 (Peritoneal macrophage [5]) was 6.97. For the same compound, the inhibition (Peritoneal macrophage [5]) was “Dose-dependent effect”.
With COC(=O)c1ccc2ccn(SC(=S)N(C)C)c2c1 the Activity (Peritoneal macrophage [1]) was “Non-Toxic”.
With S=C(Sn1ccc2ccccc21)N1CCCCCC1 the inhibition (Peritoneal macrophage [2]) was “Active”, the Activity (Peritoneal macrophage [1]) was “Non-Toxic” and the pIC50 (Peritoneal macrophage [3]) was 7.06. For the same compound, the inhibition (Peritoneal macrophage [3]) was “Dose-dependent effect”, the inhibition (Peritoneal macrophage [4]) was “Active” and the pIC50 (Peritoneal macrophage [5]) was 6.94. The inhibition (Peritoneal macrophage [5]) was “Dose-dependent effect”.
In the case of CN(C)C(=S)Sn1ccc2c(Br)cccc21, the Activity (Peritoneal macrophage [1]) was “Non-Toxic”.
With Cc1ccc2ccn(SC(=S)N(C)C)c2c1 the Activity (Peritoneal macrophage [1]) was “Non-Toxic”.
For S=C(Sn1ccc2ccccc21)N1CCC(Cc2ccccc2)CC1, the Activity (Peritoneal macrophage [1]) was “Non-Toxic”.
With Cc1cc2ccccc2n1SC(=S)N(C)C the Activity (Peritoneal macrophage [1]) was “Non-Toxic”.
In the case of S=C(Sn1ccc2ccccc21)N1CCCCC1, the Activity (Peritoneal macrophage [1]) was “Non-Toxic”.
For CCN(CC)C(=S)Sn1c(C)cc2ccccc21, the Activity (Peritoneal macrophage [1]) was “Non-Toxic”.
COc1cccc2ccn(SC(=S)N(C)C)c12 was tested, and the Activity (Peritoneal macrophage [1]) was “Non-Toxic”.
CCN(CC)C(=S)Sn1ccc2ccccc21 was tested, and the Activity (Peritoneal macrophage [1]) was “Non-Toxic”.
For Cc1cn(SC(=S)N(C)C)c2ccccc12, the inhibition (Peritoneal macrophage [2]) was “Active”, the inhibition (Mus musculus [6]) was “Active” and the inhibition (Mus musculus [7]) was “Active”. The Activity (Peritoneal macrophage [1]) was “Non-Toxic”, the inhibition (Mus musculus [8]) was “Active” and the inhibition (Mus musculus [9]) was “Dose-dependent effect”. The inhibition (Mus musculus [10]) was “Dose-dependent effect”, the pIC50 (Peritoneal macrophage [3]) was 7.84 and the inhibition (Peritoneal macrophage [3]) was “Dose-dependent effect”. For the same compound, the Activity (Mus musculus [11]) was “Active”, the inhibition (Mus musculus [12]) was “Dose-dependent effect” and the Activity (Mus musculus [13]) was “Active”. The inhibition (Peritoneal macrophage [4]) was “Active”, the Activity (Mus musculus [14]) was “Active” and the inhibition (Mus musculus [15]) was “Active”. For the same compound, the pIC50 (Peritoneal macrophage [5]) was 7.55, the inhibition (Peritoneal macrophage [5]) was “Dose-dependent effect” and the Activity (Mus musculus [16]) was “Active”. For the same compound, the Activity (Mus musculus [17]) was “Active”, the Activity (Mus musculus [18]) was “Active” and the Activity (Mus musculus [19]) was “Active”. The Activity (Mus musculus [20]) was “Active”, the Activity (Mus musculus [21]) was “Active” and the Activity (Mus musculus [22]) was “Active”. For the same compound, the Activity (Mus musculus [23]) was “Active”, the Activity (Mus musculus [24]) was “Active” and the Activity (Mus musculus [25]) was “Active”. The inhibition (Mus musculus [26]) was “Dose-dependent effect”, the inhibition (Mus musculus [27]) was “Active” and the inhibition (Mus musculus [28]) was “Dose-dependent effect”. For the same compound, the Activity (Mus musculus [29]) was “Active”.
With CN(C)C(=S)Sn1ccc2ccc(N)cc21 the Activity (Peritoneal macrophage [1]) was “Non-Toxic”.
In the case of S=C(Sn1ccc2ccccc21)N1CCSCC1, the inhibition (Peritoneal macrophage [2]) was “Active”, the Activity (Peritoneal macrophage [1]) was “Non-Toxic” and the pIC50 (Peritoneal macrophage [3]) was 7.06. For the same compound, the inhibition (Peritoneal macrophage [3]) was “Dose-dependent effect”, the inhibition (Peritoneal macrophage [4]) was “Active” and the pIC50 (Peritoneal macrophage [5]) was 7.85. For the same compound, the inhibition (Peritoneal macrophage [5]) was “Dose-dependent effect”.
With CC1CCN(C(=S)Sn2ccc3ccccc32)CC1 the Activity (Peritoneal macrophage [1]) was “Non-Toxic”.
With CN1CCN(C(=S)Sn2ccc3ccccc32)CC1 the Activity (Peritoneal macrophage [1]) was “Non-Toxic”.
CN(C)C(=S)Sn1ccc2cc(F)ccc21 was tested, and the Activity (Peritoneal macrophage [1]) was “Non-Toxic”.
With CN(C)C(=S)Sn1ccc2cc(Br)ccc21 the Activity (Peritoneal macrophage [1]) was “Non-Toxic”.
In the case of S=C(Sn1ccc2ccccc21)N1CCc2ccccc2C1, the Activity (Peritoneal macrophage [1]) was “Non-Toxic”.
For CCOC(=O)C1CCCN(C(=S)Sn2ccc3ccccc32)C1 (configuration not stated), the Activity (Peritoneal macrophage [1]) was “Non-Toxic”.
In the case of Cc1c(C)n(SC(=S)N(C)C)c2ccccc12, the Activity (Peritoneal macrophage [1]) was “Non-Toxic”.
With S=C(Sn1ccc2ccccc21)N1CCCC1 the Activity (Peritoneal macrophage [1]) was “Non-Toxic”.
With S=C(Sn1ccc2ccccc21)N(Cc1ccccc1)Cc1ccccc1 the Activity (Peritoneal macrophage [1]) was “Non-Toxic”.
With CC1CCCC(C)N1C(=S)Sn1ccc2ccccc21 (configuration not stated) the Activity (Peritoneal macrophage [1]) was “Non-Toxic”.
In the case of COc1ccc2c(ccn2SC(=S)N(C)C)c1, the Activity (Peritoneal macrophage [1]) was “Non-Toxic”.
